The source of these data is patent US11566233B2, “Three-dimensional in vitro lung model, process for preparing said model, and its use for determining and /or predicting the sensitizing effects of inhalable products” (LUXEMBOURG INSTITUTE OF SCIENCE AND TECHNOLOGY, priority 2016, dated 2023).

Series [1] deals with tetraculture in vitro lung model. The experiment in a line: Cytokines released in the tetraculture in vitro lung model. In kind it is cell-based, human. Further details: key: ?: indicates a decrease of cytokine release compared to the vehicle control; ?: indicates an increase of cytokine release compared to the vehicle control; =: indicates no change observed between exposure and the vehicle control; ?: indicates a decrease of cytokine release compared to the vehicle control; ?: indicates an increase of cytokine release compared to the vehicle control. Here is the method:
(§1) To measure the expression of cell surface markers and the release of different cytokines, the cells of inserts prepared according to example 1 above were exposed to the CV75 or, when it was not possible to reach 75% of viability, cells were exposed to the maximum of solubility of the compounds.
(§2) After 24 h and 48 h, THP-1 cells were recovered, stained and analysed using a flow cytometer according to the protocol detailed in example 2 above. Supernatants were recovered for cytokines measurements.
Table 2 below gives a summary of the results obtained for all cytokines measured, wherein, ? indicates a decrease of cytokine release compared to the vehicle control, ? indicates an increase of cytokine release compared to the vehicle control and =indicates no change observed between exposure and the vehicle control: […]

In series [2] the test system is THP-1 cells in the tetraculture lung model. The experiment in a line: Flow cytometry of cell surface marker expression on THP-1 cells in the tetraculture lung model. Type of series: cell-based, human. The settings on record: 24 h exposure, compared to control. Here is the method:
24 h and 48 h after exposure to the Vitrocell Cloud, THP-1 DC were recovered in the medium in the well. After centrifugation for 5 minutes at 300 g, cells were washed with PBS and staining was performed using antibodies listed in table 1 below (following the manufacturer's recommended dilutions) and the corresponding isotype control to determine the unspecific binding of the antibody and ensure the observed staining is due to specific binding rather than an artifact.
Relative Fluorescence Intensity (RFI) was used as an indicator of OX40L, IL7ra, CD40 and CD86 and CD54 expression and was calculated by the following formula I: […]
as §1, §2

Series [3] deals with THP-1 cells in monoculture. The experiment in a line: Cell surface marker expression on THP-1 cells in monoculture, submerged conditions (h-CLAT reproduction). In kind it is cell-based, human. To be noted: 24 h exposure. An excerpt: In parallel, THP-1 cells were exposed in submerged conditions in monoculture in order to reproduce the data obtained using the h-CLAT (human cell line activation test) assay. The h-CLAT assay is based on the property of chemicals to activate dendritic cells, property which is common to both skin and respiratory sensitizers. The h-CLAT is an in vitro model validated at the European level (ECVAM validation).
On a comparative purpose, the expression of CD86 and CD54 cell surface markers were also evaluated in the h-CLAT. It is currently recommended to use the h-CLAT to assess the skin sensitizing potential of chemicals. As skin and lung share the DC activation property, h-CLAT may be considered to be used to assess also the respiratory sensitizing potential of chemicals. To remind, there is no validated models to assess respiratory sensitization available on the market yet.
As different antibodies, fluorochromes and equipment were used to measure the CDs expression, threshold level obtained in literature on the h-CLAT could not be compared to those measured in this example.

Series [4] relates to tetraculture lung model (A549, EA.hy926, THP-1, Mϕ-THP-1). The experiment in a line: Alamar Blue viability of the tetraculture lung model after Vitrocell Cloud exposure at the air-liquid interface. The settings on record: 24 h and 48 h after exposure.
Experimental: (§4) Example of exposure of the inserts is performed in a Vitrocell® Cloud device (Waldkirch, Germany), previously cleaned under sterile conditions, and maintained at 37° C. The inserts are placed into the device. A cloud, from 200 to 500 μL of the product to be tested) is then distributed homogenously inside the chamber and starts to settle on the surface. After about 10 to 30 minutes (depending on the injected product), the cloud is settled by single droplet sedimentation. The concentration which is deposited on the insert can be calculated in g/cm^2.
(§5) Inserts prepared according to example 1 were exposed to chemical compounds and to positive controls using the Vitrocell® Cloud system (Vitrocell, Waldkirch, Germany). All compounds were diluted in a 1/1(v/v) solution of sterile saline solution and PBS.
(§6) Inserts were exposed to a range of concentrations to chemical respiratory irritants and sensitizers in order to determine first the viability of the tissue using the Alamar Blue assay. […] Upon entering cells, resazurin is reduced to pink highly fluorescent resorufin. Viable cells continuously convert resazurin to resorufin. The fluorescence is proportional to cell viability.
(§7) Following 24 h and 48 h exposure to the compounds through the Vitrocell cloud, cells were incubated for 1 hour to 400 μM of Alamar Blue diluted in Coculture 1% medium.
(§8) Viability was assessed using the Alamar Blue assay 24 h and 48 h after exposure according to the protocol detailed in example 2 above.
(§9) The concentration leading to 25% of cytotoxicity (meaning 75% of viability: CV75) relatively compared to the vehicle control was determined using the graphs presented in example 2.
The nature of series [5]: Solubility in medium containing 0.2% of DMSO. Type of series: physicochemical. On the procedure:
(§3) FIGS. 11A and 11B are diagrams showing viability of THP-1 cells after 24 h exposure to PA (FIG. 11A) and TMA (FIG. 11B) in monoculture in submerged conditions. In this figure, the highest tested concentrations represent the maximum of solubility of the compounds in medium containing 0.2% of DMSO.

The test system of series [6] is THP-1 cells in monoculture. The experiment in a line: Viability of THP-1 cells in monoculture in submerged conditions. In kind it is cell-based, human. The settings on record: 24 h exposure, up to maximum of solubility in medium containing 0.2% of DMSO. Here is the method:
as §3

Series [7] deals with tetraculture lung model (A549, EA.hy926, THP-1, Mϕ-THP-1).
Experimental: as §4, §5, §6, §7, §8, §9

Where two headings read alike, the source gives them in different places.

With `C=CC=O` [Acrolein], the “RANTES release compared to the vehicle control” value in series [1] (24 h) was “=”. In series [1] (48 h), the “MCP-1 release compared to the vehicle control” value was “=”. Also, in series [2], the “expression of cell surface marker CD54 on THP-1 cells” value is recorded as “no increase”, the “expression of cell surface marker CD86 on THP-1 cells” value is reported as “no increase” and the “expression of cell surface marker IL7ra on THP-1 cells” value was “decrease”. The “expression of CD54 on THP-1 cells” value in series [3] is reported as “increase”.

In the case of `O=C1OC(=O)c2ccccc21` [PA, Phthalic Anhydrid], in series [1] (24 h), the “IL-7 release compared to the vehicle control” value was “=” and the “MCP-1 release compared to the vehicle control” value is given as “=”. The “IL-7 release compared to the vehicle control” value in series [1] (48 h) is given as “=”. Further, in series [2], the “expression of cell surface marker CD54 on THP-1 cells” value is recorded as “Increases” and the “expression of cell surface marker CD86 on THP-1 cells” value was “Increases”. Besides, the “cell viability of the alveolar tissue model (in words)” value (“cell viability” for short) in series [4] is listed as “decrease in viability”. Further, in series [5], the solubility result was “low solubility”. In addition, the “cytotoxicity of THP-1 cells” value in series [6] was “not possible to reach any cytotoxity”.

Consider `O=C(O)c1ccc2c(c1)C(=O)OC2=O` [TMA, Trimellitic Anhydride], for which, in series [1] (24 h), the “IL-7 release compared to the vehicle control” value is “=” and the “MCP-1 release compared to the vehicle control” value is reported as “=”. Besides, in series [1] (48 h), the “IL-7 release compared to the vehicle control” value is recorded as “=”, the “IL-10 release compared to the vehicle control” value is listed as “=” and the “MCP-1 release compared to the vehicle control” value is reported as “=”. Moreover, in series [2], the “expression of cell surface marker CD54 on THP-1 cells” value was “Increases” and the “expression of cell surface marker CD86 on THP-1 cells” value is on record as “Increases”. In series [3], the “expression of CD86 on THP-1 cells” value was “lower than the vehicle control”. Besides, the “cell viability” value in series [4] is on record as “decrease in viability”. In series [5], the solubility entry was “low solubility”. For the same molecule, the “cytotoxicity of THP-1 cells” value in series [6] is “not possible to reach any cytotoxity”.

B1: Bet v1: additional known protein sensitizer; important protein allergen of pollen (protein, UniProt P15494 2-160, looked up)
Major pollen allergen Bet v …: GVFNYETETTSVIPAARLFKAFILDGDNLFPKVAPQAISSVENIEGNGGPGTIKKISFPEGFPFKYVKDRVDEVDHTNFKYNYSVIEGGPIGDTLEKISNEIKIVATPDGGSILKISNKYHTKGDHEVKAEQVKASKEMGETLLRAVESYLLAHSDAYN
On to B1, for which the “cell viability” value in series [7] is on record as “No effect”.
